From patent US12152038B2, “Vasopressin receptor antagonists and products and methods related thereto” (Neumora Therapeutics, Inc., priority 2017, dated 2024)

Target: T1, human Arginine Vasopressin Receptor 1a (AVPR1a) (Homo sapiens, UniProt P37288)
T1 construct: expressed in transfected cells; host or cells: CHO (CHO-AVPR1a, kept under G418 selection)
Assay: Vasopressin V1a receptor antagonist assay (FLIPR calcium, CHO-AVPR1a cells)
Type: cell-based
Procedure, shortened: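 CHO cells expressing human AVPR1a were loaded with Calcium-6 dye and preincubated with compound for 15 min at 37° C. Cells were then challenged with AVP at its daily-determined EC80, and FLIPR fluorescence was read. Compounds were tested in duplicate as 10-point 1:3 dilutions from a top final concentration of 3 μM.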

T1 sequence (P37288 whole entry): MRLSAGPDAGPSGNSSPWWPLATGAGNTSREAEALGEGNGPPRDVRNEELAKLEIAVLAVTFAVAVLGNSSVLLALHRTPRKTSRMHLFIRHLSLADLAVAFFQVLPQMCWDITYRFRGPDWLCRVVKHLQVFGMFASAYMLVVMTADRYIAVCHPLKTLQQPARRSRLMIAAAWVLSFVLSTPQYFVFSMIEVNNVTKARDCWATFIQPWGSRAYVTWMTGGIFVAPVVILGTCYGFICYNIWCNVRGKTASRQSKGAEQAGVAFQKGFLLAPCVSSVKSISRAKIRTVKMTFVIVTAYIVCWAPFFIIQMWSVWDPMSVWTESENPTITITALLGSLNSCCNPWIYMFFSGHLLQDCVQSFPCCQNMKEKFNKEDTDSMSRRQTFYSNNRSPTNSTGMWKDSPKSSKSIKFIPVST

Compound | IC50
CC1COc2cc(Cl)ccc2N1C(=O)N1CC2(C1)CN(c1cc(=O)n(C)cn1)C2 (single isomer, unassigned) [20-14-B] | < 100 nM
CC1COc2cc(Cl)ccc2N1C(=O)N1CC2(C1)CN(c1ccccn1)C2 (single isomer, unassigned) [1-60-B] | < 100 nM
CC1COc2cc(F)ccc2N1C(=O)N1CC2(C1)CN(c1cnccn1)C2 (single isomer, unassigned) [1-65-B] | < 100 nM
CC1COc2cc(F)ccc2N1C(=O)N1CC2(C1)CN(c1ccccn1)C2 (single isomer, unassigned) [1-66-B] | < 100 nM
Cc1cnc(N2CC3(CN(C(=O)N4c5ccc(Cl)cc5OCC4C)C3)C2)nc1 (single isomer, unassigned) [20-13-B] | < 100 nM
CC1COc2cc(F)ccc2N1C(=O)N1CC2(C1)CN(c1ncccc1F)C2 (single isomer, unassigned) [1-67-A] | < 100 nM
CC1COc2cc(Cl)ccc2N1C(=O)N1CC2(C1)CN(c1nn(C)c3ncccc13)C2 (single isomer, unassigned) [20-15-B] | < 100 nM
COc1ccc2c(c1)OCC(C)N2C(=O)N1CC2(C1)CN(c1ccc(F)cn1)C2 (single isomer, unassigned) [1-59-B] | < 100 nM
CC1COc2cc(Cl)ccc2N1C(=O)N1CC2(C1)CN(c1ccc(F)cn1)C2 (single isomer, unassigned) [1-73-A] | < 100 nM
CC1COc2cc(Cl)ccc2N1C(=O)N1CC2(C1)CN(c1ncccc1F)C2 (single isomer, unassigned) [1-57-A] | < 100 nM
CC1COc2cc(Cl)ccc2N1C(=O)N1CC2(C1)CN(c1cnccn1)C2 (single isomer, unassigned) [1-58-B] | < 100 nM
CC1COc2cc(Cl)ccc2N1C(=O)N1CC2(C1)CN(c1ccc(F)cn1)C2 (single isomer, unassigned) [1-73-B] | < 100 nM
CCC1COc2cc(Cl)ccc2N1C(=O)N1CC2(C1)CN(c1ccc(F)cn1)C2 (single isomer, unassigned) [1-55-B] | < 100 nM

The next lines start with the values.

IC50 | Compound
< 100 nM | CC1COc2cc(Cl)ccc2N1C(=O)N1CC2(C1)CN(c1noc3ccccc13)C2 (stereo not drawn) [21-1, (6-(benzo[d]isoxazol-3-yl)-2,6-diazaspiro[3.3]heptan-2-yl)(7-chloro-3-methyl-2,3-dihydro-4H-benzo[b][1,4]oxazin-4-yl)methanone]
< 100 nM | O=C(N1CC2(C1)CN(c1cc(F)ccn1)C2)N1CCOc2cc(Cl)ccc21 [1-70]
< 100 nM | N#Cc1cccc(N2CC3(CN(C(=O)N4CCOc5cc(Cl)ccc54)C3)C2)n1 [1-39]
< 100 nM | Cc1nccc(N2CC3(CN(C(=O)N4c5ccc(Cl)cc5OCC4C)C3)C2)n1 (stereo not drawn) [21-8]
< 100 nM | O=C(N1CC2(C1)CN(c1cccnc1)C2)N1CCOc2cc(Cl)ccc21 [1-72]
< 100 nM | CC1COc2cc(Cl)ccc2N1C(=O)N1CC2(C1)CN(c1ccncn1)C2 (stereo not drawn) [21-6]
< 100 nM | O=C(N1CC2(C1)CN(c1cnc(F)cn1)C2)N1CCOc2cc(Cl)ccc21 [1-18]
< 100 nM | CC1COc2cc(Cl)ccc2N1C(=O)N1CC2(C1)CN(c1ncncc1F)C2 (stereo not drawn) [21-5]
< 100 nM | Cc1nc(N2CC3(CN(C(=O)N4CCOc5cc(Cl)ccc54)C3)C2)ccc1F [1-30]
< 100 nM | Cc1cnc(N2CC3(CN(C(=O)N4CCOc5cc(Cl)ccc54)C3)C2)cn1 [1-20]
< 100 nM | CC1COc2cc(Cl)ccc2N1C(=O)N1CC2(C1)CN(c1ccccn1)C2 (stereo not drawn) [1-60]
< 100 nM | O=C(N1CC2(C1)CN(c1cc(F)cc(F)n1)C2)N1CCOc2cc(Cl)ccc21 [1-51]
< 100 nM | CCc1cnc(N2CC3(CN(C(=O)N4c5ccc(Cl)cc5OCC4C)C3)C2)nc1 (stereo not drawn) [21-9]
< 100 nM | CC1COc2cc(F)ccc2N1C(=O)N1CC2(C1)CN(c1ncccc1F)C2 (stereo not drawn) [1-67]
< 100 nM | O=C(N1CC2(C1)CN(c1cccnn1)C2)N1CCOc2cc(Cl)ccc21 [1-71]
< 100 nM | Cc1cncc(N2CC3(CN(C(=O)N4c5ccc(Cl)cc5OCC4C)C3)C2)n1 (stereo not drawn) [21-3]
< 100 nM | Cc1cncc(N2CC3(CN(C(=O)N4CCOc5cc(Cl)ccc54)C3)C2)n1 [1-22]
< 100 nM | CC1COc2cc(Cl)ccc2N1C(=O)N1CC2(C1)CN(c1nccc(C(F)(F)F)n1)C2 (stereo not drawn) [21-10]
< 100 nM | Cc1cc(F)nc(N2CC3(CN(C(=O)N4CCOc5cc(Cl)ccc54)C3)C2)c1 [1-45]
< 100 nM | CC1COc2cc(Cl)ccc2N1C(=O)N1CC2(C1)CN(c1ncccc1C#N)C2 (stereo not drawn) [21-2]
< 100 nM | O=C(N1CC2(C1)CN(c1ccc(F)cn1)C2)N1CCOc2cc(F)ccc21 [1-64]
< 100 nM | COc1nccnc1N1CC2(CN(C(=O)N3CCOc4cc(Cl)ccc43)C2)C1 [1-43]
< 100 nM | Cc1cccc(N2CC3(CN(C(=O)N4CCOc5cc(Cl)ccc54)C3)C2)n1 [1-3]
< 100 nM | O=C(N1CC2(C1)CN(c1cccc(F)n1)C2)N1CCOc2cc(Cl)ccc21 [1-69]
< 100 nM | Cc1cnnc(N2CC3(CN(C(=O)N4c5ccc(Cl)cc5OCC4C)C3)C2)c1 (stereo not drawn) [21-4]
< 100 nM | N#Cc1ccnc(N2CC3(CN(C(=O)N4CCOc5cc(Cl)ccc54)C3)C2)c1 [1-53]
< 100 nM | O=C(N1CC2(C1)CN(c1ccc(F)c(F)n1)C2)N1CCOc2cc(Cl)ccc21 [1-49]
< 100 nM | Cc1cc(N2CC3(CN(C(=O)N4c5ccc(Cl)cc5OCC4C)C3)C2)ncn1 (stereo not drawn) [21-11]
< 100 nM | COc1ccc(N2CC3(CN(C(=O)N4CCOc5cc(Cl)ccc54)C3)C2)nc1 [1-68]
